Reference: patent US8263649B2, “Benzofuran type derivatives, a composition comprising the same for treating or preventing cognitive dysfunction and the use thereof” (Medifron DBT Co., Ltd., priority 2006, dated 2012)

Columns and labels:
[1] = test system: HT22 mouse neuronal cell line treated with aggregated beta amyloid 25-35; experiment: Inhibition test of beta amyloid toxicity (MTT); type: cell-based; conditions: HT22 cells, 25 μm aggregated beta amyloid 25-35, 18 hours
Method: To determine the inhibitory activity of the compounds prepared in Examples on beta-amyloid toxicity, following test was performed according to the procedure disclosed in the literature (Gillardon, F. et al., Brain Research, 706(1), pp. 169-172, 1996).
HT22 mouse neuronal cell line was incubated in DMEM (Dulbecco's Modified Eagle's Medium, Gibco-BRL) medium supplemented with 10% FBS (Fetal Bovine Serum, Hyclone) and 1% penicillin/streptomycin (Sigma Co.). Prior to test, HT22 cell was incubated on 96 well plates with a density of 5×10^3 cell/well and further incubated in serum free DMEM medium for 1 hour before the treatment of test sample. Various concentration of compounds prepared in Examples used as a test sample was added thereto and incubated for 1 hour. Aggregated beta amyloid 25-35 (US peptide) was treated thereto to the concentration of 25 μm and incubated for 18 hours to induce cell necrosis. 5 mg/ml of MTT (3-(4,5-dimethyl-2-thiazolyl)-2,5-diphenyl-2H-tetrazolium bromide) solution was added each well with 15 μl/well and the well was incubated for 4 hours. Dissolving buffer solution (10% SDS, 50% dimethyl formamide, pH 4.7) was added to each well with 100 μl/well and reacted for overnight. 18 hours after the reaction, the absorbance of solution was determined by microplate reader (SAFIRE, TECAN) at 570 nm/630 nm wavelength (Gillardon, F. et al., Brain Research, 706(1) pp 169-172, 1996).

beta amyloid 1-42 = biological target: T1, beta amyloid 1-42 (Homo sapiens, UniProt P05067); experiment: Inhibition test of beta amyloid aggregation (Thioflavin T fluorescence); type: biochemical; conditions: FIG. 1
T1 construct: Synthetic beta amyloid 1-42 (BACHEM); purchased BACHEM; host or cells: synthetic peptide
Method: Synthetic beta amyloid 1-42 (BACHEM) was dissolved in DMSO in order to 250 μm solution and diluted with PBS into 1/10 on fluorescent black plate to induce aggregation. By comparing with inhibition activity of the tanshinone compounds prepared in Example 1 on beta amyloid aggregation, the test sample showing more than 50% inhibition activity at 10 μg/ml was chosen to use and added to react for 1 hour at room temperature. ThT (Thioflavin T) was diluted with 50 mM glycine buffer solution and the diluted solution was added to each well by 150 μl/well. The absorbance was determined by microplate reader (SAFIRE, TECAN) at 450 nm excitation wavelength/480 nm emission wavelength and the inhibition activity of the test sample on beta amyloid aggregation was transformed into IC50.

T1 sequence (P05067 672-713): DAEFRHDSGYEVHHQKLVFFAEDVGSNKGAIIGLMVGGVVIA

| melting point [°C] | inhibitory effect on the aggregation of beta amyloid (beta amyloid 1-42) | Structure (SMILES) | inhibition effect on beta-amyloid toxicity [1] |
| --- | --- | --- | --- |
| 70 |  | COc1ccc(-c2oc3ccc(CC(=O)N4CCN(Cc5ccccc5)CC4)cc3c2SC)cc1OC |  |
| 70 |  | COCCc1ccc2oc(-c3ccc(OCOC)c(OC)c3)c(SC)c2c1 [Compound 14a, 5-(2-methoxy-ethyl)-2-(3-methoxy-4-methoxymethoxy-phenyl)-3-methylsulfanyl-benzofuran] |  |
| 67 | potent inhibition effect | COCCc1ccc2oc(-c3ccc(O)c(OC)c3)c(SC)c2c1 [Compound 15a, 2-methoxy-4-[5-(2-methoxy-ethyl)-3-methylsulfanyl-benzofuran-2-yl]-phenol] | potent inhibition effect |
|  | potent inhibition effect | COCCCc1ccc2oc(-c3ccc(O)c(OC)c3)c(SC)c2c1 [Compound 15b, 2-methoxy-4-[5-(3-methoxy-propyl)-3-methylsulfanyl-benzofuran-2yl]-phenol] | potent inhibition effect |
| 180 |  | COCCc1ccc2oc(-c3ccc(O)c(OC)c3)cc2c1 [Compound 16a, 2-methoxy-4-[5-(2-methoxy-ethyl)-benzofuran-2yl]-phenol] |  |
| 61 |  | COCCc1ccc2oc(-c3ccc(OC)c(OC)c3)c(SC)c2c1 [Compound 17a, 2-(3,4-dimethoxy-phenyl)-5-(2-methoxy-ethyl)-3-methylsulfanyl-benzofuran] |  |
| 81 |  | COCCc1ccc2oc(-c3ccc(OC)c(OC)c3)cc2c1 [Compound 18a, 2-(3,4-dimethoxy-phenyl)-5-(2-methoxy-ethyl)-benzofuran] |  |
| 91 |  | COC(=O)Cc1ccc2oc(-c3ccc(OC)c(OC)c3)c(SC)c2c1 [Compound 31a, [2-(3,4-dimethoxy-phenyl)-3-(methylsulfanyl)-benzofuran-5-yl)acetic acid methyl ester] |  |
| 119 |  | COC(=O)Cc1ccc2oc(-c3ccc(OC)c(OC)c3)cc2c1 [Compound 32a, [2-(3,4-dimethoxyphenyl)-benzofuran-5-yl]acetic acid methyl ester] |  |
| 165 |  | COc1ccc(-c2oc3ccc(CC(=O)O)cc3c2SC)cc1OC [Compound 33a, [2-(3,4-dimethoxy-phenyl)-3-methylsulfanyl-benzofuran-5-yl]-acetic acid] |  |
| 202 |  | COc1ccc(-c2cc3cc(CC(=O)O)ccc3o2)cc1OC [Compound 34a, [2-(3,4-dimethoxy-phenyl)-benzofuran-5-yl]-acetic acid] |  |
| 160 |  | COc1ccc(-c2oc3ccc(CC(=O)N4CCN(c5ccccc5)CC4)cc3c2SC)cc1OC [Compound 37a, 2-[2-(3,4-dimethoxy-phenyl)-3-methylsulfanyl-benzofuran-5-yl)-1-(4-phenyl-piperazin-1-yl)-ethanone] |  |
| 96 |  | COc1ccc(-c2oc3ccc(CCO)cc3c2SC)cc1OC [Compound 39a, 2-[2-(3,4-dimethoxy-phenyl)-3-methylsulfanyl-benzofuran-5-yl]-ethanol] |  |
| 122 |  | COc1ccc(-c2cc3cc(CCO)ccc3o2)cc1OC [Compound 40a, 2-[2-(3,4-dimethoxy-phenyl)-benzofuran-5-yl]-ethanol] |  |
